Source: patent US8183287B2, “Pharmaceutical formulations and compositions of a selective antagonist of either CXCR2 or both CXCR1 and CXCR2 and methods of using the same for treating inflammatory disorders” (Schering Corporation, priority 2006, dated 2012)
Read-outs that look alike come from different tables or passages of the source.

Experiments:
[1] = tested on: pulmonary mucin production; test: pulmonary mucin production, prolonged treatment; format: in vivo
Excerpt: (§1) WO 02/083624 describes this compound (as Examples 360.31 and 405), process of making the same, as well as treatment of chemokine-related diseases and cancer using the same. Likewise, WO 03/080053 describes the treatment of chemokine-related diseases using this compound.

[2] = tested on: neutrophil recruitment to the pleural cavities; test: neutrophil recruitment to the pleural cavities in response to challenge, oral dosing; format: in vivo; conditions: orally administered
Excerpt: as §1

[3] = clinical study (i): single-dose oral pharmacokinetics, Formulation 1 capsules; format: in vivo, human; conditions: for AUC / Cmax / Tmax / half-life: both sexes, human, plasma; for AUC: po; for AUC / Cmax / Tmax / half-life / Tf Mean: healthy subjects; for Tmax: read-out: Tmax Median; for half-life: read-out: t1/2 Mean (converted)
[4] = tested on: carrageenan-induced paw edema; test: carrageenan-induced paw edema; format: in vivo; conditions: rats, compared with NSAIDs
Excerpt: as §1

[5] = clinical study in subjects with severe neutrophilic asthma; format: in vivo, human; conditions: 12 weeks
Description: This study, illustrated schematically in FIG. 5, is a randomized, double-blind, placebo-controlled study in subjects with severe neutrophilic asthma.
Safety is assessed after approximately 30 subjects have completed 2 weeks of treatment in DRF. Variables include the effect on sputum neutrophils, PBNs, adverse events (AEs) and other safety data.
Primary Efficacy Endpoint: The primary efficacy endpoint is the asthma exacerbation status (‘yes’ for presence of an exacerbation, ‘no’ for absence) during the 12-week treatment period.

[6] = clinical study in subjects with moderate to severe COPD; format: in vivo, human; conditions: subjects with moderate to severe COPD, 3, 10, 30 mg, 12 weeks
Description: This study, illustrated schematically in FIG. 4, is a double-blind, placebo-controlled, randomized, two-part study in subjects with moderate to severe COPD. Part 1 is a double-blind, placebo-controlled, randomized, rising-dose study consisting of four treatment groups enrolled in three cohorts (FIG. 4A). The treatment period for each cohort is 12 weeks in duration. […] After completing the safety analyses for Part 1 for Cohorts 1-3, Part 2 is conducted as detailed below. Part 2 is a double-blind, placebo-controlled, randomized, parallel group study consisting of four treatment groups enrolled as one cohort (FIG. 4B). The treatment period for Cohort 4 is 12 weeks in duration. […] Efficacy analyses are based solely on data collected from Part 2, Cohort 4 wherein the primary efficacy parameters measured are changes from Baseline in FEV1 and changes from Baseline in SCDS, both examined as longitudinal averages over the 12-week treatment period. […]

[7] = both, human, in vivo
[8] = clinical study in subjects with severe psoriasis; format: in vivo, human; conditions: 28 days
Description: This study, illustrated schematically in FIG. 6A, was designed as a prospective, randomized, double-blind, placebo-controlled, parallel-group study in subjects with moderate to severe psoriasis.
Each treatment is administered for 28 days. After twelve patients have completed dosing, a determination is made on the progression of the study as outlined in FIG. 6B.
Clinical Assessment. At Screening, Baseline, and Days 1, 8, 15, 29, 36, and 57 the clinical psoriasis activity (PASI and physician global assessment) is determined for each patient.
Efficacy Analyses: The primary efficacy endpoint is the response defined as a ≧50% decrease from baseline in the PASI at the end of 28 days of treatment as well as PGA. The data for the secondary endpoints detailed below are listed and summarized by treatment group using descriptive statistics. Specifically, • percent reduction on Day 28 relative to baseline of psoriatic plaque cellularity, with subpopulation analysis of neutrophils (CD50, Cathepsin G) and T-lymphocytes (CD3+, CD4+, CD8+) • change from baseline in mRNA expression of Gro-α, IL-8, and CXCR2 in the psoriatic plaque and peripheral blood • change from baseline in plasma chemokine concentrations including Gro-α and IL-8

[9] = single oral dose 150 mg (+Filgrastim 300 μg)

- AUC ([3]; 10 mg, single oral dose 10 mg, read-out: AUC (tf) Mean): 162 ng·h/mL
- AUC ([3]; 50 mg, single oral dose 50 mg, n = 4, read-out: AUC(I) Mean): 768 ng·h/mL
- AUC ([3]; 50 mg, single oral dose 50 mg, read-out: AUC (tf) Mean): 665 ng·h/mL
- AUC ([3]; 100 mg, single oral dose 100 mg, read-out: AUC (tf) Mean): 827 ng·h/mL
- AUC ([3]; 100 mg, single oral dose 100 mg, read-out: AUC(I) Mean): 878 ng·h/mL
- AUC ([3]; 150 mg, single oral dose 150 mg, read-out: AUC (tf) Mean): 1530 ng·h/mL
- AUC ([3]; 150 mg, single oral dose 150 mg, read-out: AUC(I) Mean): 1640 ng·h/mL
- AUC ([3]; 200 mg, single oral dose 200 mg, read-out: AUC (tf) Mean): 1730 ng·h/mL
- AUC ([3]; 200 mg, single oral dose 200 mg, read-out: AUC(I) Mean): 1810 ng·h/mL
- AUC ([3]; single oral dose 150 mg (+Filgrastim 300 μg), read-out: AUC (tf) Mean): 1320 ng·h/mL
- AUC ([3]; single oral dose 150 mg (+Filgrastim 300 μg), read-out: AUC(I) Mean): 1380 ng·h/mL
- Cmax ([3]; single oral dose 10 mg): 73.8 ng/mL
- Tmax ([3]; single oral dose 10 mg): 1 h
- Cmax ([3]; single oral dose 50 mg): 153 ng/mL
- half-life ([3]; single oral dose 50 mg, n = 4): 15.8 h
- Tmax ([3]; single oral dose 50 mg): 0.75 h
- Cmax ([3]; single oral dose 100 mg): 261 ng/mL
- Tmax ([3]; single oral dose 100 mg): 0.75 h
- half-life ([3]; single oral dose 100 mg): 11.8 h
- Cmax [3, 9]: 292 ng/mL
- Tmax [3, 9]: 0.75 h
- half-life [3, 9]: 13 h
- Cmax ([3]; single oral dose 150 mg): 364 ng/mL
- Tmax ([3]; single oral dose 150 mg): 0.75 h
- half-life ([3]; single oral dose 150 mg): 16.7 h
- Cmax ([3]; single oral dose 200 mg): 416 ng/mL
- Tmax ([3]; single oral dose 200 mg): 0.625 h
- half-life ([3]; single oral dose 200 mg): 11.3 h
- increase of Cmax and AUC with dose ([3]; from 10 to 200 mg): dose-related, but not dose-proportional
- Tf Mean ([3]; single oral dose 10 mg): 14 h
- Tf Mean ([3]; single oral dose 50 mg): 46 h
- Tf Mean ([3]; single oral dose 100 mg): 38 h
- Tf Mean [3, 9]: 58 h
- Tf Mean ([3]; single oral dose 150 mg): 64 h
- Tf Mean ([3]; single oral dose 200 mg): 52 h
- Median max values [7]: 0.5 to 2 h
SMILES: CC[C@@H](Nc1c(Nc2cccc(C(=O)N(C)C)c2O)c(=O)c1=O)c1ccc(C)o1 [Compound I]
- pulmonary mucin production ([1]; mice): blocks
- pulmonary mucin production ([1]; rats): blocks
- neutrophil recruitment to the pleural cavities ([2]; mice): effectively blocks
- neutrophil recruitment to the pleural cavities ([2]; rats): effectively blocks
- effect of 300 μg filgrastim on the pharmacokinetic profile ([3]; 150 mg Compound I followed by filgrastim): did not alter the pharmacokinetic profile
- ability to inhibit carrageenan-induced paw edema [4]: compares very favorably with NSAIDs
- asthma exacerbation [5]: reduction in asthma exacerbation
- sputum neutrophil and peripheral blood neutrophils [6]: reduction in sputum neutrophil and peripheral blood neutrophils
- PASI [8]: reduction in PASI
